Entries after “also recorded” stand apart in the source; their conditions may differ.
Key:
Arabidopsis thaliana = test: Arabidopsis seedling root architecture screen on vertical agar plates; assay type: in vivo; conditions: for lateral root initiation (effect of treatment) / primary root growth (effect of treatment): 6 days of treatment, concentrations tested
Description: An initial dose-responded for Arabidopsis seeding growth across multiple orders of magnitude in concentration is developed, and then examined sub-lethal concentrations in greater detail. Plants are germinated and grown vertically on transparent agar plates until the emergence of the first set of true leaves (6-8 days), transferred to fresh plates with or without the compound of interest, and imaged at 0 and 6 days after transfer. Finally, a semi-automated image analysis method is used to score primary root growth and total lateral root number, common phenotypes in plant developmental biology (Lobet, Pagès, and Draye 2011).
Arabidopsis ecotype Col-0 seeds are obtained from the Arabidopsis Biological Resource Center (ABRC). Seeds are surface sterilized by a brief wash in 70% (v/v) ethanol followed by incubation in 30% (v/v) sodium hypochlorite (commercial bleach) for 15 minutes. Seeds are subsequently rinsed 5 times in sterile water, and sown on ½ Murashige and Skoog (MS) agar. Seeds are stratified (2 days, 4° C. in the dark) before transfer to a growth chamber under a 10 h light:14 h dark (22° C.). Following germination, plants are grown until the appearance of the first set of true leaves (˜6 days) prior to transfer to fresh test or control agar. […] The change in root length is determined from the primary root length at transfer subtracted from the primary root length after 6 days of treatment.
(§1) Rhizobacterial biomass for root inoculation experiments is generated by cultivating individual isolates at 30° C. in LB supplemented with 1% (w/v) dextrose, shaking at 200 RPM. Overnight cultures are diluted to an OD600 of 0.1 in fresh media then grown under the same conditions to an OD600 of 0.7. Pellets are centrifuged (2000 r.c.f.) for 10 min at room temperature, then resuspended in 1/10 volume sterile water. Plants are inoculated by momentarily submerging their roots into cell resuspensions, or in sterile water for mock-inoculated controls. Plants are transferred to fresh ½ MS agar plates immediately post-inoculation and grown as before.
(§2) D-limonene, α-pinene, protocatechuate, p-coumarate, [C2C1im][OAc], or [Ch][Lys] are dissolved in molten ½ MS media where indicated. 1.2 M stock solutions of p-coumarate and 1.5 M stock solutions of protocatechuate are prepared in dimethylsulfoxide (DMSO) and ethanol, respectively, before their addition to growth media.
(§3) Plants are lit from the sides and photographed using a Canon 550D camera; images are saved as JPEG files for further analysis. The contrast is adjusted to maximize root visibility, but any adjustments are applied uniformly. Root growth is quantified using ImageJ (Schneider, Rasband, and Eliceiri 2012) with the SmartRoot plugin using default parameters (Lobet, Pages, and Draye 2011).

A. rhizogenes = test: Microbial growth in liquid culture (A. rhizogenes); assay type: cell-based; conditions: for microbial growth with the compound as sole carbon source: M9 minimal media
Experimental: (§4) Whether inoculation with rhizobacteria alters the effect of the test compounds on plant growth is next tested. Two microbes, A. rhizogenes and Acinetobacter sp.
Whether either [Ch][Lys] or [C2C1im][OAc] has an effect on A. rhizogenes is tested by growing a liquid culture in minimal media (M9, which contains only salts and nitrogen) supplemented with either 0.1 mM [Ch][Lys], 1 mM [C2C1im][OAc], or 1% w/v dextrose as the sole carbon source is tested.
Choline, for instance, can be used as a precursor to the compatible solute glycine betaine in a process dependent on two genes, betA and betB, both of which are present in the A. rhizogenes genome (Levy et al. 2018). Glycine betaine is additionally known to improve the salt tolerance of both plants and microbes (Riou and Le Rudulier 1990; Hayashi et al. 1997). Therefore, whether [Ch][Lys] improves the salt tolerance of A. rhizogenes by growing the microbe in M9 supplemented with 1% w/v dextrose and either 0.1 mM [Ch][Lys], 400 mM NaCl, or both, is tested.
(§5) Microbial strains are maintained in glycerol stocks stored at −80° C. Media used are Lysogeny broth (LB: 10 g/L tryptone, 5 g/L yeast extract, and 5 g/L NaCl) or M9 minimal media (M9: 6.8 g/L Na2HPO4, 3 g/L KH2PO4, 1 g/L NH4Cl, 0.5 g/L NaCl, 0.12 g/L MgSO4) as indicated. Liquid pre-cultures are inoculated with colonies from LB agar plates and grown overnight at 30° C., shaking at 200 RPM. Precultures are back-diluted to an OD600 0.1 into fresh media and grown until OD600 0.6, and then 2 μL per well is used to inoculate 96 well microtiter plates in a total volume of 100 μL of the media and treatment conditions indicated. Optical density is tracked at a wavelength of 600 nm using a Synergy 4 plate reader (BioTek Instruments) kept at 30° C. and shaking on “high” setting.

Acinetobacter sp. 01 = test: Microbial growth in liquid culture (Acinetobacter sp. 01); assay type: cell-based
Experimental: as §4, §5

Sorghum bicolor = test: Sorghum seedling root growth on vertical agar plates; assay type: in vivo; conditions: for effect on seedlings transferred to solid media: similar results as Arabidopsis; for mean crown root growth / mean lateral root growth: 5 mM [Ch][Lys], 8 days
Description: Arabidopsis is useful as a model system because of its fast generation time, ease of handling, and the availability of relevant genetic tools. The effects of these treatments on a second plant species of economic relevance are compared. Sorghum is selected, since it is both evolutionarily distant from Arabidopsis, but also an agronomically important plant for food, forage, and biomass, and is cultivated over 3,300,000 ha in the United States and 40,000,000 ha globally (Langholtz, Stokes B. J., and Eaton 2016).
Sorghum cultivar BTx623 seeds are a kind gift from Dr. Jeff Dahlberg, UCANR. Seeds are surface sterilized by rinsing 5 times in sterile water, briefly washing in 70% (v/v) ethanol+0.01% (v/v) Triton-X 100 and incubating in bleach+0.01% (v/v) Triton-X 100 on a shaker for 20 minutes. They are then rinsed in sterile water a further 3 times, sown on plates, and grown as above (although without stratification).
as §1, §2, §3

Arabidopsis roots = conditions: 0.1 mM
Experimental: FIG. 4G. […] Representative fluorescent microscopy images of Arabidopsis roots following propidium iodide staining. I: Control; II: 0.1 mM [Ch][Lys]; III: inoculation with A. rhizogenes; IV: 0.1 mM [Ch][Lys] and A. rhizogenes. The scale bar=200 μm.
Seedlings are inoculated or chemically treated as previously described. After the treatment period roots are gently washed in sterile water and the cell walls are stained for 1 min in […] propidium iodide (PI, Sigma), then briefly rinsed in sterile water. Cellular morphology is determined using a Zeiss LSM 710 confocal microscope with PI fluorescence emission at 550-680 nm and 488 nm excitation.

[1] = tested on: mammals, fish, and microbes; conditions: reported (Sun et al. 2014); cited from earlier work
[2] = 1 mM protocatechuate, inoculated with A. rhizogenes
[3] = 1 mM protocatechuate, uninoculated
[4] = 0.1 mM [Ch][Lys], inoculated with A. rhizogenes, 6 days
[5] = 0.1 mM [Ch][Lys], uninoculated, 6 days

Compound: C=C(C)C1CC=C(C)CC1 [D-limonene]
- plants showing complete inhibition of primary root growth (Arabidopsis thaliana; regardless of the concentration tested): at least 20%
- lateral root growth (Arabidopsis thaliana; uninoculated, 6 days): unaffected
- changes in root architecture / dose-response (Arabidopsis thaliana; uninoculated, between and within plates): inconsistent changes in root architecture; also recorded: no dose-response relationship was obvious

Compound: [Cl-].[Na+] [NaCl, reference compound]
- A. rhizogenes growth rate (A. rhizogenes; M9 + 1% w/v dextrose, 400 mM NaCl): reduces the A. rhizogenes growth rate

Compound: CCn1cc[n+](C)c1 [[C2C1im][OAc], 1-ethyl-3-methylimidazolium acetate]
- lateral root initiation, effect of inoculation (Arabidopsis thaliana; 1 mM [C2C1im][OAc], inoculated with A. rhizogenes): no effect
- mean primary root growth (Arabidopsis thaliana; 1 mM [C2C1im][OAc], inoculated with A. rhizogenes, 6 days): 2.912 cm
- mean primary root growth (Arabidopsis thaliana; 1 mM [C2C1im][OAc], inoculated with Acinetobacter sp. 01, 6 days): 4.011 cm
- mean primary root growth (Arabidopsis thaliana; 1 mM [C2C1im][OAc], uninoculated, 6 days): 1.904 cm
- root growth (Arabidopsis thaliana; 1 mM, uninoculated): overall reduction in root growth
- lateral root initiation (effect of treatment) (Arabidopsis thaliana; uninoculated): dose dependent reduction
- primary root growth (effect of treatment) (Arabidopsis thaliana; uninoculated): dose dependent reduction
- effect on growth of the microbe (A. rhizogenes; 1 mM): does not alter the growth
- microbial growth with the compound as sole carbon source (A. rhizogenes; 1 mM [C2C1im][OAc]): Neither IL allows microbial growth
- effect on growth of the microbe (Acinetobacter sp. 01; 1 mM): does not alter the growth

Compound: O=C(O)/C=C/c1ccc(O)cc1 [p-coumarate]
- lateral root initiation (effect of treatment) (Arabidopsis thaliana; uninoculated): dose dependent reduction
- primary root growth (effect of treatment) (Arabidopsis thaliana; uninoculated): dose dependent reduction

Compound: O=C(O)c1ccc(O)c(O)c1 [protocatechuate]
- primary root curvature, median skew to the right from that of untreated plants (Arabidopsis thaliana; 1 mM): 200
- mean lateral root number (lateral root initiation) (Arabidopsis thaliana; [2]): 2.214
- mean primary root growth (Arabidopsis thaliana; [2]): 0.631 cm
- mean lateral root number (lateral root initiation) (Arabidopsis thaliana; [3]): 7.989
- mean primary root growth (Arabidopsis thaliana; [3]): 2.293 cm
- lateral root initiation (Arabidopsis thaliana; 1 mM, uninoculated, 6 days): increase lateral root initiation
- lateral root growth (Arabidopsis thaliana; uninoculated, 6 days): enhanced
- primary root growth (effect of treatment) (Arabidopsis thaliana; uninoculated): reduce primary root growth at all concentrations tested

Compound: CC1=CCC2CC1C2(C)C (stereo not drawn) [α-pinene]
- lateral root initiation (effect of treatment) (Arabidopsis thaliana; uninoculated): dose dependent reduction
- primary root growth (effect of treatment) (Arabidopsis thaliana; uninoculated): dose dependent reduction

Compound: cholinium lysinate [[Ch][Lys]]
- effect on seedlings transferred to solid media (Arabidopsis thaliana; 0.1 mM): reduced root growth
- mean lateral root number (lateral root initiation) (Arabidopsis thaliana; [4]): 4.889
- mean primary root growth (Arabidopsis thaliana; [4]): 2.241 cm
- root growth versus uninoculated, [Ch][Lys]-treated controls (Arabidopsis thaliana; 0.1 mM [Ch][Lys], inoculated with Pool A): do not differ significantly
- mean primary root growth (Arabidopsis thaliana; 0.1 mM [Ch][Lys], inoculated with Pool B): 2.072 cm
- mean lateral root number (lateral root initiation) (Arabidopsis thaliana; [5]): 7.069
- mean primary root growth (Arabidopsis thaliana; [5]): 0.858 cm
- primary root growth (Arabidopsis thaliana; 0.1 mM, uninoculated): significantly inhibit
- lateral root initiation (Arabidopsis thaliana; 0.1 mM, uninoculated, 6 days): increase lateral root initiation
- effect on seedlings transferred to solid media (Arabidopsis thaliana; 5 mM): complete chlorosis and plant death
- concentration that reduces the root growth (Arabidopsis thaliana; A. thaliana): At least 0.1 mM
- concentration sufficient to completely inhibit primary root growth (Arabidopsis thaliana; Arabidopsis): 0.1 mM
- root growth, effect of inoculation (Arabidopsis thaliana; [Ch][Lys] treatment, inoculated with Acinetobacter sp. 01): no significant effect
- application rate equivalent to the concentration that inhibits primary root growth (Arabidopsis thaliana; equates to 0.1 mM): 104 g/ha2
- estimated appropriate application rate as herbicide (Arabidopsis thaliana; estimate): 100-500 g/ha
- primary root growth (effect of treatment) (Arabidopsis thaliana; uninoculated): reduce primary root growth at all concentrations tested
- effect on seedlings transferred to solid media (Sorghum bicolor; 0.1 mM): reduced root growth
- mean crown root growth (Sorghum bicolor; inoculated with A. rhizogenes): 5.028 cm
- mean lateral root growth (Sorghum bicolor; inoculated with A. rhizogenes): 1.051 cm
- mean crown root growth (Sorghum bicolor; uninoculated): 3.267 cm
- mean lateral root growth (Sorghum bicolor; uninoculated): 0.464 cm
- branching lateral roots and crown root growth (Sorghum bicolor; 5 mM, over 8 days): almost completely inhibit
- effect on seedlings transferred to solid media (Sorghum bicolor; 5 mM): complete chlorosis and plant death
- concentration that reduces the root growth (Sorghum bicolor; S. bicolor): At least 5 mM
- concentration tolerated by the microbe (A. rhizogenes; A. rhizogenes): 10 mM
- A. rhizogenes growth rate under NaCl (A. rhizogenes; M9 + 1% w/v dextrose, 400 mM NaCl plus 0.1 mM [Ch][Lys]): partially rescued
- microbial growth with the compound as sole carbon source (A. rhizogenes; 0.1 mM [Ch][Lys]): Neither IL allows microbial growth
- concentration tolerated by the microbe (Acinetobacter sp. 01; Acinetobacter sp. 01): 10 mM
- root cell morphology phenotype caused by [Ch][Lys] (Arabidopsis roots; A. rhizogenes treated roots): abolished
- root cell morphology (Arabidopsis roots; uninoculated): irregular expansion of epidermal cells of the root apical meristem (RAM) and stimulates formation of ectopic root hairs
- toxicity to mammals, fish, and microbes [1]: low toxicity
